Measurements: the SangsterLogP compilation

Compound | logP
Nc1ccc(S(=O)(=O)Nc2ncccc2Br)cc1 | 1.24
N#Cc1cccnc1NS(=O)(=O)c1ccc(N)cc1 | 0.15
Cc1cccnc1NS(=O)(=O)c1ccc(N)cc1 | 0.26
Nc1ccc(S(=O)(=O)Nc2ccc(Br)cn2)cc1 | 2.3
Cc1ccc(NS(=O)(=O)c2ccc(N)cc2)nc1 | 0.49
Nc1ccc(S(=O)(=O)Nc2ccccc2Cl)cc1 | 2
COc1ccccc1NS(=O)(=O)c1ccc(N)cc1 | 1.56
Cc1cc(Br)cnc1NS(=O)(=O)c1ccc(N)cc1 | 2.05
Cc1ccccc1NS(=O)(=O)c1ccc(N)cc1 | 2.03
Cc1cnc(NS(=O)(=O)c2ccc(N)cc2)nc1 | 0.17
Nc1ccc(S(=O)(=O)Nc2ncc(Cl)cc2Cl)cc1 | 1.97

Further lines, results first:

logP | Compound
0.84 | CCc1cnc(NS(=O)(=O)c2ccc(N)cc2)nc1
2.74 | Nc1ccc(S(=O)(=O)Nc2ncc(Br)cc2Br)cc1
1.58 | Nc1ccc(S(=O)(=O)Nc2cccnc2Cl)cc1
1.23 | CN(C)c1ccc(NS(=O)(=O)c2ccc(N)cc2)nc1
1.76 | Nc1ccc(S(=O)(=O)Nc2ccccc2[N+](=O)[O-])cc1
1.82 | Nc1ccc(S(=O)(=O)Nc2ccc(Cl)cn2)cc1
1.79 | Cc1cnc(NS(=O)(=O)c2ccc(N)cc2)c(Br)c1
0.82 | Nc1ccc(S(=O)(=O)Nc2ncccc2Cl)cc1
2.24 | Nc1ccc(S(=O)(=O)Nc2ccc(Cl)nc2)cc1
